This passage reports IC50 results from patent US9957265B2, “N-(2-cyano heterocyclyl) pyrazolo pyridones as janus kinase inhibitors” (Merck Sharp & Dohme Corp., priority 2013, dated 2018).

Assay [1] has as its target JAK1 (Homo sapiens (Human), UniProt P23458). Put plainly: Jak Biochemical HTRF Assay (JAK1). As to conditions: recombinant GST-tagged catalytic domain, [ATP] 31.8 μM, unit not given (compound concentrations tested given in nM). The source says:
Jak Biochemical HTRF Assay Protocol
Subsequent reagent additions employed an Agilent Bravo.

Assay [2] deals with JAK2 (Homo sapiens (Human), UniProt O60674). Put plainly: Jak Biochemical HTRF Assay (JAK2).
JAK2, sequence (O60674 849-1124): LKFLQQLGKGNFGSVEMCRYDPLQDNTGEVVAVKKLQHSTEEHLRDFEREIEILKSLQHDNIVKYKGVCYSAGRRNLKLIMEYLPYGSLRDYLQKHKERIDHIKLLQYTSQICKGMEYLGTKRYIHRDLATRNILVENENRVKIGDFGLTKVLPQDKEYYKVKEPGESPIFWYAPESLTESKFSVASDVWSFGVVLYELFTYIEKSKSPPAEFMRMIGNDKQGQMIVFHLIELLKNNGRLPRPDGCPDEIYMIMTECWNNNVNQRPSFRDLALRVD
The mark [3] stands for this setting: JAK2 IC50, recombinant GST-tagged catalytic domain, [ATP] 8.5 μM, unit not given (compound concentrations tested given in nM).
The mark [4] stands for this setting: read-out: JAK2 IC50, recombinant GST-tagged catalytic domain, [ATP] 8.5 μM, unit not given (compound concentrations tested given in nM).

Molecules are shown by their SMILES. Read-outs that look alike come from different tables or passages of the source.

JAK1, sequence (P23458 875-1153): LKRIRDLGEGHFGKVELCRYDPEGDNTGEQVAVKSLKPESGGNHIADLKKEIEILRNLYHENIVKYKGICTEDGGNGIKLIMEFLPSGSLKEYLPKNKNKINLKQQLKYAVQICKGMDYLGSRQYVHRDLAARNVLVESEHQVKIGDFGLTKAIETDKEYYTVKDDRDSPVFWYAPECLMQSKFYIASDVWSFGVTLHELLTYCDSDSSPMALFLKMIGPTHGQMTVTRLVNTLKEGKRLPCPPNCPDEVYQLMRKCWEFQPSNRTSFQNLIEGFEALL

As to `CC(C)(C)OC(=O)CNC(c1ccc(Nc2nn([C@H]3COCC[C@@H]3C#N)c3cc[nH]c(=O)c23)cc1)C(F)(F)F` (single isomer, unassigned) [Example 1-40, tert-butyl N-{[(1R or 1S)-1-[4-({1-[(3R,4S)-4-cyanotetrahydro-2H-pyran-3-yl]-4-oxo-4,5-dihydro-1H-pyrazolo[4,3-c]pyridin-3-yl}amino)phenyl]-2,2,2-trifluoroethyl}glycinate], the IC50 in assay [1] came to 0.16 nM; in assay [2] (setting [3]) it was 0.78 nM.

On to `CN(C(C)(C)C)S(=O)(=O)c1ccc(Nc2nn([C@H]3COCC[C@@H]3C#N)c3cc[nH]c(=O)c23)cc1` [Example 1-12, N-(tert-butyl)-4-((1-((3R,4S)-4-cyanotetrahydro-2H-pyran-3-yl)-4-oxo-4,5-dihydro-1H-pyrazolo[4,3-c]pyridin-3-yl)amino)-N-methylbenzenesulfonamide], for which the results for the IC50 in assay [1] and in assay [2] (setting [4]) were 0.1 nM and 0.3 nM, respectively.

As for `N#Cc1ccc(Nc2nn([C@H]3COCC[C@@H]3C#N)c3cc[nH]c(=O)c23)cc1` [Example 1-31, (3R,4S)-3-{3-[(4-cyanophenyl)amino]-4-oxo-4,5-dihydro-1H-pyrazolo[4,3-c]pyridin-1-yl}tetrahydro-2H-pyran-4-carbonitrile], the IC50 in assay [1] was found to be 0.12 nM; in assay [2] (setting [4]) it was 0.96 nM.

In the case of `CN(C)C(c1ccc(Nc2nn([C@H]3COCC[C@@H]3C#N)c3cc[nH]c(=O)c23)cc1)C(F)(F)F` (single isomer, unassigned) [Example 1-59, (3R,4S)-3-[3-({4-[(1S or 1R)-1-(dimethylamino)-2,2,2-trifluoroethyl]phenyl}amino)-4-oxo-4,5-dihydro-1H-pyrazolo[4,3-c]pyridin-1-yl]tetrahydro-2H-pyran-4-carbonitrile], the IC50 came out at 0.05 nM in assay [1] and 0.08 nM in assay [2] (setting [3]).

Take `Cc1nc2ccc(Nc3nn([C@@H]4COCC[C@@H]4C#N)c4cc[nH]c(=O)c34)cc2s1` [Example 2-1, (3S,4S)-3-{3-[(2-methyl-1,3-benzothiazol-6-yl)amino]-4-oxo-4,5-dihydro-1H-pyrazolo[4,3-c]pyridin-1-yl}tetrahydro-2H-pyran-4-carbonitrile]: the IC50 was 0.03 nM in assay [1] and 0.89 nM in assay [2] (setting [4]).

Turning to `CC(C)NC(c1ccc(Nc2nn([C@H]3COCC[C@@H]3C#N)c3cc[nH]c(=O)c23)cc1)C(F)(F)F` (single isomer, unassigned) [Example 1-52, (3R,4S)-3-{4-oxo-3-[(4-{(1R or 1S)-2,2,2-trifluoro-1-[(1-methylethyl)amino]ethyl}phenyl)amino]-4,5-dihydro-1H-pyrazolo[4,3-c]pyridin-1-yl}tetrahydro-2H-pyran-4-carbonitrile], the IC50 came to 0.08 nM in assay [1] and 0.11 nM in assay [2] (setting [3]).

For `N#C[C@H]1CCOC[C@@H]1n1nc(Nc2ccc3c(c2)CN(CC(F)(F)F)S3(=O)=O)c2c(=O)[nH]ccc21` [Example 1-62, (3R,4S)-3-(3-{[1,1-dioxido-2-(2,2,2-trifluoroethyl)-2,3-dihydro-1,2-benzothiazol-5-yl]amino}-4-oxo-4,5-dihydro-1H-pyrazolo[4,3-c]pyridin-1-yl)tetrahydro-2H-pyran-4-carbonitrile], the IC50 in assay [1] came out at 0.05 nM; in assay [2] (setting [4]), 0.29 nM.

On to `CC1(C)CN(S(=O)(=O)c2ccc(Nc3nn([C@H]4COCC[C@@H]4C#N)c4cc[nH]c(=O)c34)cc2)CCO1` [Example 1-71, (3R,4S)-3-[3-({4-[(2,2-dimethylmorpholin-4-yl)sulfonyl]phenyl}amino)-4-oxo-4,5-dihydro-1H-pyrazolo[4,3-c]pyridin-1-yl]tetrahydro-2H-pyran-4-carbonitrile], for which the figures for the IC50 in assay [1] and in assay [2] (setting [4]) were 0.22 nM and 0.7 nM, respectively.

As for `CC(C)(C)S(=O)(=O)c1ccc(Nc2nn([C@H]3COCC[C@@H]3C#N)c3cc[nH]c(=O)c23)cc1` [Example 1-13], the IC50 in assay [1] was 0.08 nM; in assay [2] (setting [4]) it was 0.21 nM.

As for `CC(C)N1Cc2ccc(Nc3nn([C@H]4COCC[C@@H]4C#N)c4cc[nH]c(=O)c34)cc2C1` [Example 1-15, (3R,4S)-3-(3-{[2-(1-methylethyl)-2,3-dihydro-1H-isoindol-5-yl]amino}-4-oxo-4,5-dihydro-1H-pyrazolo[4,3-c]pyridin-1-yl)tetrahydro-2H-pyran-4-carbonitrile], the IC50 is 0.12 nM in assay [1] and 0.27 nM in assay [2] (setting [4]).

Turning to `N#C[C@H]1CCOC[C@@H]1n1nc(Nc2ccc(C(N3CCCC3)C(F)(F)F)cc2)c2c(=O)[nH]ccc21` (single isomer, unassigned) [Example 1-43, (3R,4S)-3-[4-oxo-3-({4-[(1S or 1R)-2,2,2-trifluoro-1-pyrrolidin-1-ylethyl]phenyl}amino)-4,5-dihydro-1H-pyrazolo[4,3-c]pyridin-1-yl]tetrahydro-2H-pyran-4-carbonitrile], the IC50 in assay [1] was 0.04 nM; in assay [2] (setting [3]), 0.08 nM.

Take `N#C[C@H]1CCOC[C@@H]1n1nc(Nc2ccc(C(N3CCSCC3)C(F)(F)F)cc2)c2c(=O)[nH]ccc21` (single isomer, unassigned) [Example 2-6, (3R,4S)-3-[4-oxo-3-({4-[(1R or 1S)-2,2,2-trifluoro-1-thiomorpholin-4-ylethyl]phenyl}amino)-4,5-dihydro-1H-pyrazolo[4,3-c]pyridin-1-yl]tetrahydro-2H-pyran-4-carbonitrile]: the IC50 worked out at 0.21 nM in assay [1] and 0.24 nM in assay [2] (setting [3]).

In the case of `CC1(C)CC1NC(c1ccc(Nc2nn([C@H]3COCC[C@@H]3C#N)c3cc[nH]c(=O)c23)cc1)C(F)(F)F` (single isomer, unassigned) [Example 1-46, (3R,4S)-3-{3-[(4S or 4R-{1S or 1R-[(2,2-dimethylcyclopropyl)amino]-2,2,2-trifluoroethyl}phenyl)amino]-4-oxo-4,5-dihydro-1H-pyrazolo[4,3-c]pyridin-1-yl}tetrahydro-2H-pyran-4-carbonitrile], the results for the IC50 in assay [1] and in assay [2] (setting [3]) were 0.14 nM and 0.21 nM, respectively.

In the case of `CS(=O)(=O)c1ccc(Nc2nn([C@@H]3COCC[C@H]3C#N)c3cc[nH]c(=O)c23)cc1` [Example 1-1, (3S,4R)-3-(3-((4-(methylsulfonyl)phenyl)amino)-4-oxo-4,5-dihydro-1H-pyrazolo[4,3-c]pyridin-1-yl)tetrahydro-2H-pyran-4-carbonitrile], the IC50 in assay [1] was 7.06 nM; in assay [2] (setting [4]), 11.5 nM.

On to `N#C[C@H]1CCOC[C@@H]1n1nc(Nc2ccc(C(N)C(F)(F)F)cc2)c2c(=O)[nH]ccc21` (single isomer, unassigned) [Example 1-9, (3R,4S)-3-(3-((4-((S or R)-1-amino-2,2,2-trifluoroethyl)phenyl)amino)-4-oxo-4,5-dihydro-1H-pyrazolo[4,3-c]pyridin-1-yl)tetrahydro-2H-pyran-4-carbonitrile], for which the IC50 in assay [1] is 0.09 nM; in assay [2] (setting [3]) it was 0.29 nM.

For the molecule `N#C[C@H]1CCOC[C@@H]1n1nc(Nc2ccc(C(NC3CCCC3)C(F)(F)F)cc2)c2c(=O)[nH]ccc21` (single isomer, unassigned) [Example 1-85, (3R,4S)-3-[3-({4-[(1R or 1S)-1-(cyclopentylamino)-2,2,2-trifluoroethyl]phenyl}amino)-4-oxo-4,5-dihydro-1H-pyrazolo[4,3-c]pyridin-1-yl]tetrahydro-2H-pyran-4-carbonitrile], the IC50 in assay [1] came out at 0.12 nM; in assay [2] (setting [3]), 0.14 nM.

As for `CCN(C(C)(C)C)S(=O)(=O)c1ccc(Nc2nn([C@H]3COCC[C@@H]3C#N)c3cc[nH]c(=O)c23)cc1` [Example 1-79, N-(tert-butyl)-4-((1-((3R,4S)-4-cyanotetrahydro-2H-pyran-3-yl)-4-oxo-4,5-dihydro-1H-pyrazolo[4,3-c]pyridin-3-yl)amino)-N-ethylbenzenesulfonamide], the IC50 is 0.04 nM in assay [1] and 0.08 nM in assay [2] (setting [4]).

Regarding `N#C[C@H]1CCOCC1n1nc(Nc2ccc(C(O)(c3ccncc3)C(F)(F)F)cc2)c2c(=O)[nH]ccc21` (single isomer, unassigned) [Example 1-95, (3R,4S)-3-(4-oxo-3-((4-((S or R)-2,2,2-trifluoro-1-hydroxy-1-(pyridin-4-yl)ethyl)phenyl)amino)-4,5-dihydro-1H-pyrazolo[4,3-c]pyridin-1-yl)tetrahydro-2H-pyran-4-carbonitrile], the results for the IC50 in assay [1] and in assay [2] (setting [3]) were 0.06 nM and 0.09 nM, respectively.

Turning to `CC(C)NC1(C)C(=O)Nc2cc(Nc3nn(C4COCC[C@@H]4C#N)c4cc[nH]c(=O)c34)ccc21` (single isomer, unassigned) [Example 1-101, (3R,4S)-3-[3-({(3S or 3R)-3-methyl-3-[(1-methylethyl)amino]-2-oxo-2,3-dihydro-1H-indol-6-yl}amino)-4-oxo-4,5-dihydro-1H-pyrazolo[4,3-c]pyridin-1-yl] tetrahydro-2H-pyran-4-carbonitrile], the IC50 in assay [1] was 0.07 nM; in assay [2] (setting [4]), 0.05 nM.

For the molecule `CC1(C)C(=O)Nc2cc(Nc3nn([C@H]4COCC[C@@H]4C#N)c4cc[nH]c(=O)c34)ccc21` [Example 2-2, (3R,4S)-3-{3-[(3,3-dimethyl-2-oxo-2,3-dihydro-1H-indol-6-yl)amino]-4-oxo-4,5-dihydro-1H-pyrazolo [4,3-c]pyridin-1-yl}tetrahydro-2H-pyran-4-carbonitrile], the IC50 in assay [1] was 0.05 nM; in assay [2] (setting [4]), 0.16 nM.

Turning to `C[S+]([O-])c1cc(Nc2nn([C@H]3COCC[C@@H]3C#N)c3cc[nH]c(=O)c23)ccc1Cl` (mixture of isomers) [Example 3-4, (3R,4S)-3-(3-{[4-chloro-3-((S and R)methylsulfinyl)phenyl]amino}-4-oxo-4,5-dihydro-1H-pyrazolo[4,3-c]pyridin-1-yl)tetrahydro-2H-pyran-4-carbonitrile], the IC50 in assay [1] turned out to be 1.75 nM; in assay [2] (setting [3]), 14.6 nM.
